Data as given in patent publication US9340555B2, “Compounds as tyrosine kinase modulators” (Allergan, Inc., priority 2009, dated 2016).

Legend:
[1] = biological target: human VEGF receptor (VEGFR-2) (Homo sapiens (Human), UniProt P35968); test: VEGFR2 Kinase Assay (Enzymic VEGFR2); assay type: biochemical; details: His-VEGFR-2 cytoplasmic domain, 3.6 µM ATP
Procedure: VEGFR2 Kinase Assay The cytoplasmic domain of the human VEGF receptor (VEGFR-2) was expressed as a Histidine-tagged fusion protein following infection of insect cells using an His engineered baculovirus. […] Kinase assays were performed in 96 well microtiter plates that were coated overnight with 30 µg of poly-Glu-[…]:1) in 10 mM Phosphate Buffered Saline (PBS), pH 7.2-7.4. The plates were incubated with 1% BSA and then washed four times with PBS prior to starting the reaction. […] Reactions were initiated by the addition 0.5 ng of purified protein. Following a ten minute incubation at 25° C., the reactions were washed four times with PBS containing 0.05% Tween-20. 100 µl of a monoclonal anti-phosphotyrosine antibody-peroxidase conjugate was diluted 1:10000 in PBS-Tween-20 and added to the wells for 30 minutes. Following four washes with PBS-Tween-20, 100 µl of 0-phenylenediamine Dihydrochloride in Phosphate-citrate buffer, containing urea hydrogen peroxide, was added to the wells for 7 minutes as a colorimetric substrate for the peroxidase. […] IC50 values for compound inhibition were calculated directly from graphs of optical density (arbitrary units) versus compound concentration following subtraction of blank values.

PDGFRβ = PDGFRβ (Homo sapiens (Human), UniProt P09619); test: Enzymic PDGFRβ; assay type: biochemical
Chain of PDGFRβ (P09619 33-1106, species assumed): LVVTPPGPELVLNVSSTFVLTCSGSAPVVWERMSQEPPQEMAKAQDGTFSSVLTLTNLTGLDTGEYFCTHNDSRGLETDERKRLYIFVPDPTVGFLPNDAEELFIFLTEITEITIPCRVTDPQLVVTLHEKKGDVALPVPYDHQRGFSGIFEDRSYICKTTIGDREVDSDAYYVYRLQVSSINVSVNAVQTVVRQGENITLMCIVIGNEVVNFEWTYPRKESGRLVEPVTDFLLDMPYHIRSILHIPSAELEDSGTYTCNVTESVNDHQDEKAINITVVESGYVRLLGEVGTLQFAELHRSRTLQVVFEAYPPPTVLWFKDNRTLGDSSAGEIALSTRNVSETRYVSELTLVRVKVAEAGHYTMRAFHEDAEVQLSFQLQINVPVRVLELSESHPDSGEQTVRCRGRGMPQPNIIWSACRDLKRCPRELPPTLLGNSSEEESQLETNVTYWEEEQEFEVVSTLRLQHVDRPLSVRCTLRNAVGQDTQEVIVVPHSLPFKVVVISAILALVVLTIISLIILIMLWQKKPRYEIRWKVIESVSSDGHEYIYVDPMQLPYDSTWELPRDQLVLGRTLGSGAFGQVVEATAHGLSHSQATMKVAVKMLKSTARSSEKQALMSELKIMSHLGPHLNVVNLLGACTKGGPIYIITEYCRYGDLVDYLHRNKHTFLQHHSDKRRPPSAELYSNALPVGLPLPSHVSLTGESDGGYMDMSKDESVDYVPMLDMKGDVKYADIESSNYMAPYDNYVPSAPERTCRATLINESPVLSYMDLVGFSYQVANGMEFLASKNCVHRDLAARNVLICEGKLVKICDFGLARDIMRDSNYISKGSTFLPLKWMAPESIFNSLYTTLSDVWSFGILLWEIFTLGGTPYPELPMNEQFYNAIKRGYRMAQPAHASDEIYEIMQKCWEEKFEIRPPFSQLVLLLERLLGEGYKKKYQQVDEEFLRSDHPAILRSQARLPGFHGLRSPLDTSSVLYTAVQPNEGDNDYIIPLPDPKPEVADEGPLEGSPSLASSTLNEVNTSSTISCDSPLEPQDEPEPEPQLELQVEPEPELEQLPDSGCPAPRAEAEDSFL

VEGFR1 = VEGFR1 (Homo sapiens (Human), UniProt P17948); test: Enzymic VEGFR1; assay type: biochemical
Chain of VEGFR1 (P17948 27-1338, species assumed): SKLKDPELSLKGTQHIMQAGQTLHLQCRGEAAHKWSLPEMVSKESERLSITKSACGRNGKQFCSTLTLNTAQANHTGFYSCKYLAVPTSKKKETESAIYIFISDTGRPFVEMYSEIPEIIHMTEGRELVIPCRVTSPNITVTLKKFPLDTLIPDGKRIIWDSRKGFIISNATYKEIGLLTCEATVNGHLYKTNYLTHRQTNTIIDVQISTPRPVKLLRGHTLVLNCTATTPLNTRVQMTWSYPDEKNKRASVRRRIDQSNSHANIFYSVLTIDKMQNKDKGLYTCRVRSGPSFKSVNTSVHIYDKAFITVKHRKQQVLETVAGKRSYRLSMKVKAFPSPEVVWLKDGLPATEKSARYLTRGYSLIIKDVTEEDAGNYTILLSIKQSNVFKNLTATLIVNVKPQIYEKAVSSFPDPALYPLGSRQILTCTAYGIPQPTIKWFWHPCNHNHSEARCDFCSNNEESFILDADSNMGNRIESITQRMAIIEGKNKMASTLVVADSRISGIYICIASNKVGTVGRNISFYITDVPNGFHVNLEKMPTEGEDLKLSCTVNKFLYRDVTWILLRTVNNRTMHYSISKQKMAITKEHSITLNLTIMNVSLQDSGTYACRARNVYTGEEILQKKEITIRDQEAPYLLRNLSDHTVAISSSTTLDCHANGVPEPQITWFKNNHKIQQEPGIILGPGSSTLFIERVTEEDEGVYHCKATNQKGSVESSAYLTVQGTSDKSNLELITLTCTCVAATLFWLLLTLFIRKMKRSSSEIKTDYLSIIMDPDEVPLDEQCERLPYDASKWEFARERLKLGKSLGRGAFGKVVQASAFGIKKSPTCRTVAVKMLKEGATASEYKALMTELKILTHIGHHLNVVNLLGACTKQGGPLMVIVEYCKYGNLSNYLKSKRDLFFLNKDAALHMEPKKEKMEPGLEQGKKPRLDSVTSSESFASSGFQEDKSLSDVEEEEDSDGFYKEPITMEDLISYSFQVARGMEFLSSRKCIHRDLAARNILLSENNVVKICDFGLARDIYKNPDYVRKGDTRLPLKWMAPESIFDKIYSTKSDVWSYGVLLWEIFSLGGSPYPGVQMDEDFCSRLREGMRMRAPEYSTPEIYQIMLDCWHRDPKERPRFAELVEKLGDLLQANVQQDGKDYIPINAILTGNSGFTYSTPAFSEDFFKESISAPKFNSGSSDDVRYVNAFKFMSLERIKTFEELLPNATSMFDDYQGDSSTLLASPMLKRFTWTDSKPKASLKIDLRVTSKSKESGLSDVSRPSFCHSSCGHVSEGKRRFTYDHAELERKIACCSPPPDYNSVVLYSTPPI

VEGFR2 = VEGFR2 (Homo sapiens (Human), UniProt P35968); test: VEGF Stimulated Ca++ Signal In Vitro (Cellular VEGFR2, FLIPR); assay type: cell-based; details: HUVEC, VEGF stimulation (5 ng/mL), intracellular calcium
Chain of VEGFR2 (P35968 20-1356): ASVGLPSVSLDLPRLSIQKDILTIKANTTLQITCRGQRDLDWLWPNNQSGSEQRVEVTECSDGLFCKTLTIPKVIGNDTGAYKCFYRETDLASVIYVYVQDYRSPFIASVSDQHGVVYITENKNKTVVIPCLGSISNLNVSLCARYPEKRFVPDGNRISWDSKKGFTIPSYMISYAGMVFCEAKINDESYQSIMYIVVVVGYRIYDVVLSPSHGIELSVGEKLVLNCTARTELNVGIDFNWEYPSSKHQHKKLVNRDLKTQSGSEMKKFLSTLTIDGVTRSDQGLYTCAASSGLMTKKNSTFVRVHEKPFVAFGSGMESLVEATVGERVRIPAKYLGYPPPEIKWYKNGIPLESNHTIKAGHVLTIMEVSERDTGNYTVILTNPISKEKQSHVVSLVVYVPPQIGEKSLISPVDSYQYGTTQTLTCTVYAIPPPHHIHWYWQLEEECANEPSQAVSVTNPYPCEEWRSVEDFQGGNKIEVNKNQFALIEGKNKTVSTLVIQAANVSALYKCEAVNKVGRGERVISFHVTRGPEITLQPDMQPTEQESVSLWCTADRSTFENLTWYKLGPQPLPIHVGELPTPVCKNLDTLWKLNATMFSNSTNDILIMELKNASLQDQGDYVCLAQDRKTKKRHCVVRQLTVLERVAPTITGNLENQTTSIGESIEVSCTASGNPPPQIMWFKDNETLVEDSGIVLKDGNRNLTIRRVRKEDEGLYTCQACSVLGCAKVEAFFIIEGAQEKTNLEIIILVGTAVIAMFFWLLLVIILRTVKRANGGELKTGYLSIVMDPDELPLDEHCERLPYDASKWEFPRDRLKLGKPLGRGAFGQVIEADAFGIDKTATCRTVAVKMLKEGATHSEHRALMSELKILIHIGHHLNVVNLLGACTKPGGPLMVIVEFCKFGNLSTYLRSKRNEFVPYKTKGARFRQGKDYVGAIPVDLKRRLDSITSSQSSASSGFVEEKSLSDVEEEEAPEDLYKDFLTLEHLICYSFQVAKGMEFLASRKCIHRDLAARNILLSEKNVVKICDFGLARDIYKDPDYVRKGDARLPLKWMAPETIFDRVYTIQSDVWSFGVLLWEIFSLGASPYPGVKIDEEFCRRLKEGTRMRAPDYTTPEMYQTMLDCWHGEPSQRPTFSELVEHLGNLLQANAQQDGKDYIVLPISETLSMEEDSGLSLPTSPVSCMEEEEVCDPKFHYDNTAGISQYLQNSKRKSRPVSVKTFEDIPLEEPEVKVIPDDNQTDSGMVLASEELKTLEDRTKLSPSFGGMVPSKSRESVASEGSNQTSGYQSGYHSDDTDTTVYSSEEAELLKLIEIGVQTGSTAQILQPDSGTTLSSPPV

Chain of human VEGF receptor (VEGFR-2) (P35968 786-1356): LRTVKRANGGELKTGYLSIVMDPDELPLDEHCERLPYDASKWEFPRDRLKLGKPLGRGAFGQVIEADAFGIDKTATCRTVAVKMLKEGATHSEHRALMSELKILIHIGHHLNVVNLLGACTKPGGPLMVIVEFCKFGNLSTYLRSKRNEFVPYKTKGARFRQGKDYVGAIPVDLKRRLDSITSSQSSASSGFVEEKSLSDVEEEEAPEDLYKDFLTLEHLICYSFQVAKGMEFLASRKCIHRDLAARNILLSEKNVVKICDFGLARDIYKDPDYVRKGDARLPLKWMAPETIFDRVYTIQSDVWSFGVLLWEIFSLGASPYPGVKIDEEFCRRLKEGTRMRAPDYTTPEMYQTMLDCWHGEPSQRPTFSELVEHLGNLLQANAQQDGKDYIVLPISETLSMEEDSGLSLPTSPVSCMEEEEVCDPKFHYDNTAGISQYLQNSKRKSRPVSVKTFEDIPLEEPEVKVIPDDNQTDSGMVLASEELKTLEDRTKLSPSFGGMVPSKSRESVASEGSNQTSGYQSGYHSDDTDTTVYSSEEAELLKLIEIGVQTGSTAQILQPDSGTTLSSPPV

Cc1ccc(F)c(NC(=O)Nc2ccc(Oc3ccnc4cc(C(=O)NCCCN5CCOC(CO)C5)sc34)cc2)c1 (stereo not drawn) [Example 16, 7-[4-({[(2-fluoro-5-methylphenyl)amino]carbonyl}amino)phenoxy]-N-{3-[2-(hydroxymethyl)morpholin-4-yl]propyl}thieno[3,2-b]pyridine-2-carboxamide]
IC50 [1]: 7 nM
IC50 (PDGFRβ): 15 nM
IC50 (VEGFR1): 10 nM

COC(=O)CNCCCNC(=O)c1cc2nccc(Oc3ccc(NC(=O)Nc4cc(C)ccc4F)c(F)c3)c2s1 [Example 25, methyl ({3-[({7-[3-fluoro-4-({[(2-fluoro-5-methylphenyl)amino]carbonyl}amino)phenoxy]thieno[3,2-b]pyridin-2-yl}carbonyl)amino]propyl}amino)acetate]
IC50 [1]: 5 nM
IC50 (PDGFRβ): 11 nM
IC50 (VEGFR1): 8 nM

COC(=O)CN(CCCNC(=O)c1cc2nccc(Oc3ccc(NC(=O)Nc4cc(C)ccc4F)c(F)c3)c2s1)CC(=O)OC [Example 26, dimethyl 2,2′-({3-[({7-[3-fluoro-4-({[(2-fluoro-5-methylphenyl)amino]carbonyl}amino)phenoxy]thieno[3,2-b]pyridin-2-yl}carbonyl)amino]propyl}imino)diacetate]
IC50 [1]: 5 nM
IC50 (PDGFRβ): 12 nM
IC50 (VEGFR1): 10 nM

COC(=O)CN(CCNC(=O)c1cc2nccc(Oc3ccc(NC(=O)Nc4cc(C)ccc4F)c(F)c3)c2s1)CC(=O)OC [Example 27, dimethyl 2,2′-({2-[({7-[3-fluoro-4-({[(2-fluoro-5-methylphenyl)amino]carbonyl}amino)phenoxy]thieno[3,2-b]pyridin-2-yl}carbonyl)amino]ethyl}imino)diacetate]
IC50 [1]: 16 nM
IC50 (PDGFRβ): 17 nM
IC50 (VEGFR1): 11 nM

COC(=O)C1CCN(C(=O)c2cc3nccc(Oc4ccc(NC(=O)Nc5cc(C)ccc5F)c(F)c4)c3s2)C1 (stereo not drawn) [Example 28, methyl 1-({7-[3-fluoro-4-({[(2-fluoro-5-methylphenyl)amino]carbonyl}amino)phenoxy]thieno[3,2-b]pyridin-2-yl}carbonyl)pyrrolidine-3-carboxylate]
IC50 [1]: 5 nM
IC50 (PDGFRβ): 17 nM
IC50 (VEGFR1): 8 nM

CCOC(=O)CN1CCN(C(=O)CN2CCN(C(=O)c3cc4nccc(Oc5ccc(NC(=O)Nc6cc(C)ccc6F)c(F)c5)c4s3)CC2)CC1 [Example 29, ethyl (4-{[4-({7-[3-fluoro-4-({[(2-fluoro-5-methylphenyl)amino]carbonyl}amino)phenoxy]thieno[3,2-b]pyridin-2-yl}carbonyl)piperazin-1-yl]acetyl}piperazin-1-yl)acetate]
IC50 [1]: 5 nM
IC50 (PDGFRβ): 13 nM
IC50 (VEGFR1): 10 nM

CCOC(=O)CN1CCN(C(=O)c2cc3nccc(Oc4ccc(NC(=O)Nc5cc(C)ccc5F)c(F)c4)c3s2)CC1 [Example 30, ethyl [4-({7-[3-fluoro-4-({[(2-fluoro-5-methylphenyl)amino]carbonyl}amino)phenoxy]thieno[3,2-b]pyridin-2-yl}carbonyl)piperazin-1-yl]acetate]
IC50 [1]: 7 nM
IC50 (PDGFRβ): 17 nM
IC50 (VEGFR1): 112 nM

COC(=O)CNCCNC(=O)c1cc2nccc(Oc3ccc(NC(=O)Nc4cc(C)ccc4F)c(F)c3)c2s1 [Example 31, methyl ({2-[({7-[3-fluoro-4-({[(2-fluoro-5-methylphenyl)amino]carbonyl}amino)phenoxy]thieno[3,2-b]pyridin-2-yl}carbonyl)amino]ethyl}amino)acetate]
IC50 [1]: 9 nM
IC50 (PDGFRβ): 13 nM
IC50 (VEGFR1): 9 nM

Cc1ccc(F)c(NC(=O)Nc2ccc(Oc3ccnc4cc(C(=O)NCCN)sc34)cc2F)c1 [Example 32, N-(2-aminoethyl)-7-[3-fluoro-4-({[(2-fluoro-5-methylphenyl)amino]carbonyl}amino)phenoxy]thieno[3,2-b]pyridine-2-carboxamide]
IC50 [1]: 4 nM
IC50 (PDGFRβ): 15 nM
IC50 (VEGFR1): 11 nM

Cc1ccc(F)c(NC(=O)Nc2ccc(Oc3ccnc4cc(C(=O)NCCNC(=O)OC(C)(C)C)sc34)cc2F)c1 [Example 33]
IC50 [1]: 24 nM
IC50 (PDGFRβ): 69 nM
IC50 (VEGFR1): 60 nM

Cc1ccc(F)c(NC(=O)Nc2ccc(Oc3ccnc4cc(C(=O)NCCCN5CCN(C)CC5)sc34)cc2F)c1 [Example 34, 7-[3-fluoro-4-({[(2-fluoro-5-methylphenyl)amino]carbonyl}amino)phenoxy]-N-[3-(4-methylpiperazin-1-yl)propyl]thieno[3,2-b]pyridine-2-carboxamide]
IC50 [1]: 3 nM
IC50 (PDGFRβ): 11 nM
IC50 (VEGFR1): 6 nM

Cc1ccc(F)c(NC(=O)Nc2ccc(Oc3ccnc4cc(C(=O)NCCCN5CCCC(CO)C5)sc34)cc2F)c1 (stereo not drawn) [Example 36, 7-[3-fluoro-4-({[(2-fluoro-5-methylphenyl)amino]carbonyl}amino)phenoxy]-N-{3-[3-(hydroxymethyl)piperidin-1-yl]propyl}thieno[3,2-b]pyridine-2-carboxamide]
IC50 [1]: 7 nM
IC50 (VEGFR1): 8 nM

Cc1ccc(F)c(NC(=O)Nc2ccc(Oc3ccnc4cc(C(=O)NCCCN5CCOC(CO)C5)sc34)cc2F)c1 (stereo not drawn) [Example 37, 7-[3-fluoro-4-({[(2-fluoro-5-methylphenyl)amino]carbonyl}amino)phenoxy]-N-{3-[2-(hydroxymethyl)morpholin-4-yl]propyl}thieno[3,2-b]pyridine-2-carboxamide]
IC50 (VEGFR2): 1 nM
IC50 [1]: 7 nM
IC50 (VEGFR1): 9 nM

CCOC(=O)CCCNC(=O)c1cc2nccc(Oc3ccc(NC(=O)Nc4cc(C)ccc4F)cc3)c2s1 [Example 56, ethyl 4-[({7-[4-({[(2-fluoro-5-methylphenyl)amino]carbonyl}amino)phenoxy]thieno[3,2-b]pyridin-2-yl}carbonyl)amino]butanoate]
IC50 [1]: 20 nM
IC50 (VEGFR1): 16 nM

Cc1ccc(F)c(NC(=O)Nc2ccc(Oc3ccnc4cc(C(=O)NCCCC(=O)O)sc34)cc2F)c1 [Example 64, 4-[({7-[3-fluoro-4-({[(2-fluoro-5-methylphenyl)amino]carbonyl}amino)phenoxy]thieno[3,2-b]pyridin-2-yl}carbonyl)amino]butanoic acid]
IC50 [1]: 13 nM
IC50 (VEGFR1): 7 nM

Cc1ccc(F)c(NC(=O)Nc2ccc(Oc3ccnc4cc(C(=O)NCCCN5CCCCC5)sc34)cc2)c1 [Example 66, 7-[4-({[(2-fluoro-5-methylphenyl)amino]carbonyl}amino)phenoxy]-N-(3-piperidin-1-ylpropyl)thieno[3,2-b]pyridine-2-carboxamide]
IC50 (VEGFR2): 16 nM
IC50 [1]: 4 nM
IC50 (PDGFRβ): 16 nM

Cc1ccc(F)c(NC(=O)Nc2ccc(Oc3ccnc4cc(C(=O)NCCCN5CCN(C)CC5)sc34)cc2)c1 [Example 67, 7-[4-({[(2-fluoro-5-methylphenyl)amino]carbonyl}amino)phenoxy]-N-[3-(4-methylpiperazin-1-yl)propyl]thieno[3,2-b]pyridine-2-carboxamide]
IC50 (VEGFR2): 2 nM
IC50 [1]: 2 nM
IC50 (PDGFRβ): 9 nM

Cc1ccc(F)c(NC(=O)Nc2ccc(Oc3ccnc4cc(C(=O)NCCCN5CCCC5)sc34)cc2)c1 [Example 68, 7-[4-({[(2-fluoro-5-methylphenyl)amino]carbonyl}amino)phenoxy]-N-(3-pyrrolidin-1-ylpropyl)thieno[3,2-b]pyridine-2-carboxamide]
IC50 (VEGFR2): 20 nM
IC50 [1]: 6 nM
IC50 (PDGFRβ): 16 nM

Cc1ccoc1C(=O)Nc1cccc(Oc2ccnc3cc(C(=O)O)sc23)c1 [Example 72, 7-{3-[(3-methyl-2-furoyl)amino]phenoxy}thieno[3,2-b]pyridine-2-carboxylic acid]
IC50 (VEGFR2): 162 nM
IC50 [1]: 39 nM
IC50 (PDGFRβ): 920 nM

Cc1ccoc1C(=O)Nc1cccc(Oc2ccnc3cc(C(=O)NO)sc23)c1 [Example 75, N-hydroxy-7-{3-[(3-methyl-2-furoyl)amino]phenoxy}thieno[3,2-b]pyridine-2-carboxamide]
IC50 (VEGFR2): 16 nM
IC50 [1]: 11 nM
IC50 (PDGFRβ): 277 nM

Cc1ccc(F)c(NC(=O)c2cccc(Oc3ccnc4cc(C(=O)O)sc34)c2)c1 [Example 84, 7-(3-{[(2-fluoro-5-methylphenyl)amino]carbonyl}phenoxy)thieno[3,2-b]pyridine-2-carboxylic acid]
IC50 (VEGFR2): 87 nM
IC50 [1]: 20 nM
IC50 (PDGFRβ): 223 nM

CCNC(=O)c1cc2nccc(Oc3cccc(C(=O)Nc4cc(C)ccc4F)c3)c2s1 [Example 85, N-ethyl-7-(3-{[(2-fluoro-5-methylphenyl)amino]carbonyl}phenoxy)thieno[3,2-b]pyridine-2-carboxamide]
IC50 (VEGFR2): 16 nM
IC50 [1]: 10 nM
IC50 (PDGFRβ): 74 nM

CCN(CC)C(=O)c1cc2nccc(Oc3cccc(C(=O)Nc4cc(C)ccc4F)c3)c2s1 [Example 86, N,N-diethyl-7-(3-{[(2-fluoro-5-methylphenyl)amino]carbonyl}phenoxy)thieno[3,2-b]pyridine-2-carboxamide]
IC50 (VEGFR2): 64 nM
IC50 [1]: 7 nM
IC50 (PDGFRβ): 206 nM

COC(=O)CNCCCNC(=O)c1cc2nccc(Oc3cccc(C(=O)Nc4cc(C)ccc4F)c3)c2s1 [Example 87, Methyl {[3-({[7-(3-{[(2-fluoro-5-methylphenyl)amino]carbonyl}phenoxy)thieno[3,2-b]pyridin-2-yl]carbonyl}amino)propyl]amino}acetate]
IC50 (VEGFR2): 9 nM
IC50 [1]: 16 nM
IC50 (PDGFRβ): 59 nM
